Legend:
[1] = tested on: P. aeruginosa MB9798 (efflux+, IMP-1 plasmid); settings: for MB9798 MITC95 P. aeruginosa uM Efflux WT: efflux + (MB9798) strain, imipenem at 2 μg/mL, in the presence of a class A, C, D serine β-lactamase inhibitor closely related to relebactam; for Efflux ratio: fold difference between efflux+ (MB9798) and efflux− (MB9799) strains
Summary of the method: (§1)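 PAO1-derived isogenic pair (oprD+, inducible AmpC), efflux+ MB5919 or efflux− MB5890 parent, carrying an electroporated IMP-1 plasmid from a clinical isolate. Microbroth MIC with fixed imipenem and/or ceftazidime (usually CLSI breakpoint) plus fixed class A/C inhibitor; MBL inhibitor serially titrated, concentration restoring susceptibility recorded.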

[2] = biological target: VIM-2 (Escherichia coli, UniProt Q5U7L7); test: biochemical; settings: CCF2-FA fluorescence assay; read-out: VIM2 IC50
[3] = tested on: P. aeruginosa MB9799 (efflux-, IMP-1 plasmid); format: cell-based, Pseudomonas aeruginosa; settings: efflux − (MB9799) strain; imipenem at 2 μg/mL; in the presence of a class A, C, D serine β-lactamase inhibitor closely related to relebactam
Summary of the method: as §1

[4] = biological target: NDM-1 (Klebsiella pneumoniae, UniProt C7C422); test: biochemical; format: biochemical; settings: CCF2-FA fluorescence assay, 2 hours at 25° C.
Summary of the method: (§2)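 In 100 mM phosphate pH 7 containing Tween-20 and ZnSO4, NDM-1 (1 pM), IMP-1 (2 pM) or VIM-1 (30 pM) hydrolysed 1.25 μM CCF2-FA over 2 hours at 25° C with inhibitor present. Readout was 405/460 nm fluorescence.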

[5] = tested on: Klebsiella pneumoniae expressing VIM-1 (IHMA599644); format: cell-based; settings: with imipenem 1 μg/ml; 95% inhibition of bacterial growth
Summary of the method: (§3)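 Each strain, diluted 1:100 from saline suspension into 1.1× CAMHB, was combined with imipenem held at 1 μg/ml and graded inhibitor. Growth after 22–24 h at 35 °C was measured by absorbance, and the lowest concentration achieving 95% inhibition defined MITC95.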

[6] = tested on: Escherichia coli expressing NDM-1 (CLB30016); format: cell-based; settings: with imipenem 1 μg/ml; 95% inhibition of bacterial growth
Summary of the method: as §3

[7] = tested on: Serratia marcescens expressing IMP-1 (CL5741); format: cell-based; settings: with imipenem 1 μg/ml; 95% inhibition of bacterial growth
Summary of the method: as §3

[8] = biological target: VIM-1 (Pseudomonas aeruginosa (strain ATCC 15692 / DSM 22644 / CIP 104116 / JCM 14847 / LMG 12228 / 1C / PRS 101 / PAO1), UniProt A0A0F7KYQ8); test: biochemical; settings: CCF2-FA fluorescence assay, 2 hours at 25° C.; read-out: VIM1 IC50
Summary of the method: as §2

[9] = biological target: IMP-1 (Serratia marcescens, UniProt P52699); test: biochemical; settings: CCF2-FA fluorescence assay, 2 hours at 25° C.; read-out: IMP1 IC50
Summary of the method: as §2

NDM-1, sequence (C7C422 whole entry, looked up, species assumed): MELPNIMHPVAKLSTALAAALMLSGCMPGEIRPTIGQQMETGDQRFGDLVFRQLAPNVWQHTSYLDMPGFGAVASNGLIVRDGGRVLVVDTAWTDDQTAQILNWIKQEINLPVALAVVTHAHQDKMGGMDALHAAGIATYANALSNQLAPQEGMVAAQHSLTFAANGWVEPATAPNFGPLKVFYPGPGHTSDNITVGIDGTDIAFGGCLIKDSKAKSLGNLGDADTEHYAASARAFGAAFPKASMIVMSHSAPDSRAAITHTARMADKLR
IMP-1, sequence (P52699 whole entry, looked up, species assumed): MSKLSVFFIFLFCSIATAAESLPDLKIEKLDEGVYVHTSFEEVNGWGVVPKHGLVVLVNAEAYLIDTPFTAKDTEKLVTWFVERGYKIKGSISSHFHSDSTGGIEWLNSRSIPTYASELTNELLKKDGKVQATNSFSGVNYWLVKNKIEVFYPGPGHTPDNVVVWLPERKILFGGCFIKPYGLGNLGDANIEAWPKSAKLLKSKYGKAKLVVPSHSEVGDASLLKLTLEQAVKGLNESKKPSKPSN

Compound | MB9798 MITC95 P. aeruginosa uM Efflux WT [1] | Efflux ratio [1] | IC50 [2] | MB9799 MITC95 P. aeruginosa uM Efflux Mutant [3] | IC50 [4] | IHMA599644 K. pneumoniae MITC95 VIM [5] | CLB30016 E. coli MITC95 NDM [6] | CL5741 S. marcescens MITC95 IMP [7] | IC50 [8] | IC50 [9]
NS(=O)(=O)c1c(S(=O)(=O)N[C@@H]2CCNC2)ccc(N2CCC(Cc3ccccn3)CC2)c1-c1nnn[nH]1 [Example 106, 4-[4-(pyridin-2-ylmethyl)piperidin-1-yl]-N1-[(3R)-pyrrolidin-3-yl]-3-(1H-tetrazol-5-yl)benzene-1,2-disulfonamide] | 50.00 µM | 16.00 | 0.46 nM | 3.13 µM | 0.06 nM | 6.25 µM | 6.25 µM | 3.13 µM | 0.1 nM | 0.12 nM
NS(=O)(=O)c1c(S(=O)(=O)N[C@@H]2CCNC2)ccc(N2CCCCC2=O)c1-c1nn[nH]n1 [Example 154, (R)-4-(2-oxopiperidin-1-yl)-N1-(pyrrolidin-3-yl)-3-(2H-tetrazol-5-yl)benzene-1,2-disulfonamide] | 3.13 µM | 2.00 | 0.73 nM | 1.56 µM | 0.35 nM | 6.25 µM | 1.56 µM | 1.56 µM | 0.26 nM | 8.46 nM
NS(=O)(=O)c1c(S(=O)(=O)C2CNC2)ccc(N2CC3C(CO)C3C2)c1-c1nnn[nH]1 (stereo not drawn) [Example 62, 6-(azetidin-3-ylsulfonyl)-3-[6-(hydroxymethyl)-3-azabicyclo[3.1.0]hex-3-yl]-2-(1H-tetrazol-5-yl)benzenesulfonamide] | 50.00 µM | 31.99 | 10.5 nM | 1.56 µM | 2.86 nM | 6.25 µM | 1.56 µM | 3.13 µM | 3.07 nM | 4.89 nM
N[C@H]1CCN(c2ccc(S(=O)(=O)N[C@@H]3CCNC3)c(S(N)(=O)=O)c2-c2nn[nH]n2)C[C@H]1F [Example 199, 4-((3R,4S)-4-amino-3-fluoropiperidin-1-yl)-N1-((R)-pyrrolidin-3-yl)-3-(2H-tetrazol-5-yl)benzene-1,2-disulfonamide] | 0.78 µM | 1.00 | 4.27 nM | 0.78 µM | 1.69 nM | 0.39 µM | 0.39 µM | 0.10 µM | 0.18 nM | 6.11 nM
NS(=O)(=O)c1c(S(=O)(=O)N[C@@H]2CCNC2)ccc(N2CCNC2=S)c1-c1nn[nH]n1 [Example 191, (R)—N1-(pyrrolidin-3-yl)-3-(2H-tetrazol-5-yl)-4-(2-thioxoimidazolidin-1-yl)benzene-1,2-disulfonamide] | 6.25 µM | 4.00 | 1.15 nM | 1.56 µM | 0.94 nM | 3.13 µM | 0.78 µM | 1.56 µM | 0.21 nM | 25.2 nM
NC[C@@H](O)CNS(=O)(=O)c1ccc(N2CCC(C(N)CO)CC2)c(-c2nn[nH]n2)c1S(N)(=O)=O (single isomer, unassigned) [Example 181] | 0.78 µM | 1.00 | 5.87 nM | 0.78 µM | 4.62 nM | 1.56 µM | 0.39 µM | 0.39 µM | 0.22 nM | 5.78 nM
NS(=O)(=O)c1c(S(=O)(=O)N[C@@H]2CCNC2)ccc(NC2CCOCC2)c1-c1nnn[nH]1 [Example 66, N1-[(3R)-pyrrolidin-3-yl]-4-(tetrahydro-2H-pyran-4-ylamino)-3-(1H-tetrazol-5-yl)benzene-1,2-disulfonamide] | 25.00 µM | 15.99 | 3.7 nM | 1.56 µM | 0.62 nM | 6.25 µM | 6.25 µM | 3.13 µM | 1.76 nM | 4.48 nM
NC[C@@H](O)CNS(=O)(=O)c1ccc(N2CC[C@H](CN)[C@@H](O)C2)c(-c2nn[nH]n2)c1S(N)(=O)=O [Example 10] | 3.13 µM | 4.00 | 27 nM | 0.78 µM | 16.4 nM | 1.56 µM | 0.39 µM | 0.39 µM | 0.43 nM | 28.9 nM
NCC=C1CCN(c2ccc(S(=O)(=O)NC[C@H](O)CN)c(S(N)(=O)=O)c2-c2nn[nH]n2)CC1 [Example 204, (R)—N1-(3-amino-2-hydroxypropyl)-4-(4-(2-aminoethylidene)piperidin-1-yl)-3-(2H-tetrazol-5-yl)benzene-1,2-disulfonamide] | 0.78 µM | 1.00 | 3.44 nM | 0.78 µM | 0.97 nM | 1.56 µM | 0.78 µM | 1.56 µM | 0.16 nM | 1.55 nM
NS(=O)(=O)c1c(S(=O)(=O)N[C@@H]2CCNC2)ccc(N2CCOC(CCO)C2)c1-c1nnn[nH]1 (stereo partly drawn) [Example 105, 4-[2-(2-hydroxyethyl)morpholin-4-yl]-N1-[(3R)-pyrrolidin-3-yl]-3-(1H-tetrazol-5-yl)benzene-1,2-disulfonamide] | 12.50 µM | 2.00 | 1.79 nM | 6.25 µM | 0.25 nM | 12.50 µM | 6.25 µM | 6.25 µM | 0.96 nM | 1.16 nM
NC[C@@H]1CCCN(c2ccc(S(=O)(=O)N[C@@H]3CCNC3)c(S(N)(=O)=O)c2-c2nnn[nH]2)C1 [Example 78, 4-[(3S)-3-(aminomethyl)piperidin-1-yl]-N1-[(3R)-pyrrolidin-3-yl]-3-(1H-tetrazol-5-yl)benzene-1,2-disulfonamide] | 6.25 µM | 8.00 | 3.01 nM | 0.78 µM | 5.4 nM | 1.56 µM | 0.39 µM | 1.56 µM | 0.66 nM | 35.4 nM
NCCN1CCN(c2ccc(S(=O)(=O)NC[C@H](O)CN)c(S(N)(=O)=O)c2-c2nn[nH]n2)CC1=O [Example 147, (R)-N1-(3-amino-2-hydroxypropyl)-4-(4-(2-aminoethyl)-3-oxopiperazin-1-yl)-3-(2H-tetrazol-5-yl)benzene-1,2-disulfonamide] | 3.13 µM | 4.00 | 56.2 nM | 0.78 µM | 27 nM | 1.56 µM | 0.39 µM | 0.78 µM | 0.28 nM | 39.6 nM

— US11207312B2, “Metallo-beta-lactamase inhibitors and methods of use thereof” (priority 2017, dated 2021)
